# Active and inactive are the calls of the source. The calls are words filed in the database; no cut-off is given here.
# Columns and labels:
# [1] = species on record: Homo sapiens; assay: Induction of adipogenesis in human bone marrow-derived mesenchymal stem cells assessed as increase in adiponectin production at 30 uM measured on day 5 in presence of IDX by ELISA; assay type: functional
# [2] = Induction of adipogenesis in human bone marrow-derived mesenchymal stem cells assessed as increase in adiponectin production at 30 uM measured on day 5 in presence of IDX by ELISA relative to control; assay type: functional
# [3] = Induction of adipogenesis in human bone marrow-derived mesenchymal stem cells assessed as increase in adiponectin production at 60 uM measured on day 5 in presence of IDX by ELISA relative to pioglitazone; assay type: functional; conditions: 120 h
# [4] = target: T1, Peroxisome proliferator-activated receptor gamma (Homo sapiens) (UniProt P37231); assay: Inhibition of labeled ligand binding to PPARgamma (unknown origin) at 60 uM by TR-FRET assay relative to control
# T1 sequence (whole entry): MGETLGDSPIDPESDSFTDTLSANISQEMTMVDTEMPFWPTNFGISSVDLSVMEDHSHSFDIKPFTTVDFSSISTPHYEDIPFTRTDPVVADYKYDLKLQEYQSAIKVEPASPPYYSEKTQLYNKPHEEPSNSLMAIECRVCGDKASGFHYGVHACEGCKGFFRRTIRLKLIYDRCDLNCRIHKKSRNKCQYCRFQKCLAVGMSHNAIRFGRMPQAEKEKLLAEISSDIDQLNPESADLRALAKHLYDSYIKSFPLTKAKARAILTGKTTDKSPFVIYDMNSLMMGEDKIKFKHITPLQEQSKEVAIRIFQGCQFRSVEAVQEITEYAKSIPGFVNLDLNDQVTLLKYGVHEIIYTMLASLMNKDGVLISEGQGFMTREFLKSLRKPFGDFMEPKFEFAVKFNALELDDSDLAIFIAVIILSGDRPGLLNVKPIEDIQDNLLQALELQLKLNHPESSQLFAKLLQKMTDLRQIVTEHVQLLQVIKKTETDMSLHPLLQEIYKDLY
# [5] = cells; conditions: Homo sapiens, 120 h
# Description: Induction of adipogenesis in human bone marrow-derived mesenchymal stem cells assessed as increase in adiponectin production measured on day 5 in presence of IDX by ELISA
# [6] = target: T2, Peroxisome proliferator-activated receptor gamma (Homo sapiens, UniProt P37231); assay: (§1) Binding affinity to PPARgamma (unknown origin) by TR-FRET assay
# T2 sequence (P37231 whole entry): T1 sequence (whole entry)
# [7] = target: T3, Oxysterols receptor LXR-alpha (Homo sapiens) (UniProt Q13133); assay: Binding affinity to LXRalpha (unknown origin) at 30 uM by TR-FRET assay
# T3 sequence (whole entry): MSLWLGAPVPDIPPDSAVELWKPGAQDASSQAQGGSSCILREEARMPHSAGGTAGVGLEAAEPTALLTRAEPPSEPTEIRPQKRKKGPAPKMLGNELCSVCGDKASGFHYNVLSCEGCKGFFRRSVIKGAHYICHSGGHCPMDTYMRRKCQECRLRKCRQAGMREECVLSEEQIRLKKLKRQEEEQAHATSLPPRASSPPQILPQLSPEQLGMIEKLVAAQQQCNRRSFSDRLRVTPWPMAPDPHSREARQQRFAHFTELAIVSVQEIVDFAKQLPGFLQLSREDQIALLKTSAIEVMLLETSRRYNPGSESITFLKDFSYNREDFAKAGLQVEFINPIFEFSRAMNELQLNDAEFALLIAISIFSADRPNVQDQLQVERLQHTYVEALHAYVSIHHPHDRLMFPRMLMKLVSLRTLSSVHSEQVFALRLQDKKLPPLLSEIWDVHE
# [8] = target: T4, Peroxisome proliferator-activated receptor alpha (Homo sapiens) (UniProt Q07869); assay: Binding affinity to PPARalpha (unknown origin) at 30 uM by TR-FRET assay
# T4 sequence (whole entry): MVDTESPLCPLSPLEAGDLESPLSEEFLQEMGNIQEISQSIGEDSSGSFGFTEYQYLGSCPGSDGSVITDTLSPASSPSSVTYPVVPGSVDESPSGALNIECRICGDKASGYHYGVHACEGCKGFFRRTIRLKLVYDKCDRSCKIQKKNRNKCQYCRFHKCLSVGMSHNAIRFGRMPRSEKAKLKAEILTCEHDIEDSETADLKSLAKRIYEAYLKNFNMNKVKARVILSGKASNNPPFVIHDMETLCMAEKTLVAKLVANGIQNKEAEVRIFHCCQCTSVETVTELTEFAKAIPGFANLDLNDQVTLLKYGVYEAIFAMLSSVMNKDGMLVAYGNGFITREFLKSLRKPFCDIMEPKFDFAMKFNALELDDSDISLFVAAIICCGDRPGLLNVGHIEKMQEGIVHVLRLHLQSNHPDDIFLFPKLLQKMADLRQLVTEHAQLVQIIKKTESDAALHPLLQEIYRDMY
# [9] = target: T5, Glucocorticoid receptor (Homo sapiens) (UniProt P04150); assay: Binding affinity to GR (unknown origin) at 30 uM by TR-FRET assay
# T5 sequence (whole entry): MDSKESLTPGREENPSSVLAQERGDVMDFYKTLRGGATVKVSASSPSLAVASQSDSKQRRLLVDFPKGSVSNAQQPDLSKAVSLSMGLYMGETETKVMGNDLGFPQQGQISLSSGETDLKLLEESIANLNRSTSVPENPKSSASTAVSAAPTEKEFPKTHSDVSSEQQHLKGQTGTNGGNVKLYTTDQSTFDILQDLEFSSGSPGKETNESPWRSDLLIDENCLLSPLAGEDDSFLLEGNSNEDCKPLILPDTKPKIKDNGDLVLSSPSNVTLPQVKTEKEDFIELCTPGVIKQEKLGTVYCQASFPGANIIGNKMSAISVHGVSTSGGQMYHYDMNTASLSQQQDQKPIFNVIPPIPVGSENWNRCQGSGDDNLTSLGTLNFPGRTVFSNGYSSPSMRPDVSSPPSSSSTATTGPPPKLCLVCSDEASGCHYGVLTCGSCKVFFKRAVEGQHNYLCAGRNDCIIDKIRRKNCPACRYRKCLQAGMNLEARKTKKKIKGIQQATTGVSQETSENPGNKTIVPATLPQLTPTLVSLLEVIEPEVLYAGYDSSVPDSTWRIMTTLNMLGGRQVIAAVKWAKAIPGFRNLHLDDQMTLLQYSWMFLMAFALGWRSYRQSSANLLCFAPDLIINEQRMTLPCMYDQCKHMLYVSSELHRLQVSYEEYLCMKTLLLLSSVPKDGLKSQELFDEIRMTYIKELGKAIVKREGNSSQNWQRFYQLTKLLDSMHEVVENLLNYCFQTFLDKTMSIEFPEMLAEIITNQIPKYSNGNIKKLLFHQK
# [10] = target: T6, Peroxisome proliferator-activated receptor delta (Homo sapiens) (UniProt Q03181); assay: Binding affinity to PPARdelta (unknown origin) at 30 uM by TR-FRET assay
# T6 sequence (whole entry): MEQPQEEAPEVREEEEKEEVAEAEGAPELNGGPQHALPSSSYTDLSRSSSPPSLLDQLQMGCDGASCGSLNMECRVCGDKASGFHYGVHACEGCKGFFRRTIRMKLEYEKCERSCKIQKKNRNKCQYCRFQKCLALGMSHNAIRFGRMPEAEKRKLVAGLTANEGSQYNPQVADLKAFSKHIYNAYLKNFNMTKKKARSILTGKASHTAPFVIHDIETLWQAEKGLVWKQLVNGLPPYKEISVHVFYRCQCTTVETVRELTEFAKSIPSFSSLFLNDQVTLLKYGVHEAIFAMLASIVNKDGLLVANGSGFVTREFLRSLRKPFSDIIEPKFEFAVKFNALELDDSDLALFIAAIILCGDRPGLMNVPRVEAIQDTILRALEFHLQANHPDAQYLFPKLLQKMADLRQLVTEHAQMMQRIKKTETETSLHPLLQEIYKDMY
# [11] = target: T1, Peroxisome proliferator-activated receptor gamma (Homo sapiens); assay: as §1
# [12] = target: T1, Peroxisome proliferator-activated receptor gamma (Homo sapiens); assay: Inhibition of labeled ligand binding to PPARgamma (unknown origin) at 30 uM by TR-FRET assay relative to control
EC50 [5] [µM],SMILES,Activity [1],also measured
,O=c1cc(CCc2ccccc2)oc2c(O)cccc12,inactive,
> 60,O=c1cc(CCc2ccccc2)oc2ccc(O)c(O)c12,Active,fold change (FC) [2]: 1.97; Emax at 60 µM [3]: 48%; inhibition [4]: 41.1%
,O=c1cc(CCc2ccccc2)oc2cccc(O)c12,Active,
,COc1ccc2oc(CCc3ccccc3)cc(=O)c2c1O,Active,
,O=c1cc(CCc2ccccc2O)oc2ccccc12,inactive,
,O=C1C=C(CCc2ccccc2)OC2C1[C@@H]1O[C@@H]1[C@H](O)[C@H]2O (relative stereo),Active,
2.95,COc1ccc(Cl)cc1C(=O)NCCc1ccc(S(=O)(=O)NC(=O)NC2CCCCC2)cc1 [GLYBURIDE],,Ki [6]: 0.66 µM
20.3,COc1ccc2c(=O)cc(CCc3ccccc3)oc2c1,Active,Activity [7]: inactive; Activity [8]: inactive; Activity [9]: inactive; Activity [10]: inactive; Activity [11]: Dose-dependent effect; Ki [6]: 14.9 µM; inhibition [12]: 50.3%
,O=c1cc(CCc2ccccc2)oc2c(Cl)cc(O)cc12,Active,

# From ChEMBL document CHEMBL4330147, “Adiponectin-Secretion-Promoting Phenylethylchromones from the Agarwood of Aquilaria malaccensis” (J Nat Prod, 2019)
